This note sets out measurements from patent US12410171B2, “Tropomyosin receptor kinase (TRK) degradation compounds and methods of use” (Cullgen (Shanghai), Inc., priority 2020, dated 2025).

In one assay the test system is KM12 cells. The assay can be described thus: KM12 cell viability (CellTiter-Glo). It is filed as cell-based. As to conditions: Homo sapiens. Summed up:
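Three-day exposure of KM12 cells (5000/well, RPMI 1640 with 10% FBS, 37 °C, 5% CO2) to compound dilution series, 3-fold over 8 or 11 points (top 1000 nM in the 8-point format) or 2-fold over 12. CellTiter-Glo readout, with IC50 fitted by nonlinear least-squares regression.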
(ATP-based viability assays read luminescence as a measure of living cells.)

For the next assay, the target named is T1, TPM3-TRKA fusion protein (Homo sapiens, UniProt P04629).
T1 construct: The resulted chimeric proteins always retain the kinase domain of TRK proteins; TPM3 (fusion partner, N-terminal part of tropomyosin alpha-3, P06753); endogenous in cells; host or cells: KM12 colon cancer cells; the other entry of the earlier key: TPM3 (P06753, Tropomyosin alpha-3 chain)
The experiment in a line: TPM3-TRKA fusion protein levels in KM12 cells (Western blot). The class given is cell-based. As to conditions: read-out: Degradation (at 10 nM). Summed up:
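TPM3-TRKA levels were assessed by Western blot with chemiluminescent detection and band densitometry, after SDS-PAGE of BCA-normalized RIPA lysates. Before lysis, KM12 cells received DMSO, compounds or matched control compounds at concentrations including 0.1, 1, 10 and 100 nM and 0.4–30 nM. Exposures lasted 4 h, 8–16 h or 16 h.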
Background: Immunoblotting shows a protein as a band on a membrane.

[1] abbreviates: 72 h, KM12 cell viability, CellTiter-Glo, three days treatment, read-out: IC50.
Where [2] appears, read: 16 h, TPM3-TRKA degradation in KM12 cells at 10 nM compound, category of percentage degradation.

The structures appear in SMILES notation. Where two headings read alike, the source gives them in different places.

T1 sequence (P04629 with tags, fused parts or gaps): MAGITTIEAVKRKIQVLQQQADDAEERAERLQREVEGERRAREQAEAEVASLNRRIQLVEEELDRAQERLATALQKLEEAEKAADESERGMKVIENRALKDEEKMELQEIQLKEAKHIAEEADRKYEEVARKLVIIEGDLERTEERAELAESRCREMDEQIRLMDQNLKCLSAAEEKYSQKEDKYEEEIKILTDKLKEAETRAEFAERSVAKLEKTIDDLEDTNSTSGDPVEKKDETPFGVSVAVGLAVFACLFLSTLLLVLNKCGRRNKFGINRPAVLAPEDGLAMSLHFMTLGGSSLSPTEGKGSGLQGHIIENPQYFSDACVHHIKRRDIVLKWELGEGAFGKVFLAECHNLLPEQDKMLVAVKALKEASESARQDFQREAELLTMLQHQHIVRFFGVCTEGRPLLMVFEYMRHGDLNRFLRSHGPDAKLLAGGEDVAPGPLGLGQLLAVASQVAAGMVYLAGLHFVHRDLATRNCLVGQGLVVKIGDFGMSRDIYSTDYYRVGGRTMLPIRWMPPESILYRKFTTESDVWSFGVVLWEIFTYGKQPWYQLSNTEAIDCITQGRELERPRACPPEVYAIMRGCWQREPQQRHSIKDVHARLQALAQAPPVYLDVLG

In general, IC50 refers to the concentration that inhibits the measured activity by half. As for `O=C(CN1CCN(c2cccc(-c3cnc4ccc(N5CCC[C@@H]5c5cccc(F)c5)nn34)n2)CC1)NCCOCCNc1ccc2c(c1)C(=O)N(C1CCC(=O)NC1=O)C2=O` (stereo partly drawn) [TR-135, N-(2-(2-((2-(2,6-dioxopiperidin-3-yl)-1,3-dioxoisoindolin-5-yl)amino)ethoxy)ethyl)-2-(4-(6-(6-((R)-2-(3-fluorophenyl)pyrrolidin-1-yl)imidazo[1,2-b]pyridazin-3-yl)pyridin-2-yl)piperazin-1-yl)acetamide], the IC50 in the assay on KM12 cells (setting [1]) came to 0.9 nM. Moreover, the percent degradation of TPM3-TRKA protein at 0.01 µM at TPM3-TRKA fusion protein (setting [2]) is over 80%.

With `O=C1CCC(N2C(=O)c3ccc(NCCOCCOCCOCCOCCC(=O)N4CCN(c5ccc(C(=O)Nc6n[nH]c7ccc(Cc8cc(F)cc(F)c8)cc67)c(NC6CCOCC6)c5)CC4)cc3C2=O)C(=O)N1` (stereo not shown) [TR-140, N-(5-(3,5-Difluorobenzyl)-1H-indazol-3-yl)-4-(4-(1-((2-(2,6-dioxopiperidin-3-yl)-1,3-dioxoisoindolin-5-yl)amino)-3,6,9,12-tetraoxapentadecan-15-oyl)piperazin-1-yl)-2˜ ((tetrahydro-2H-pyran-4-yl)amino)benzamide], in the assay with KM12 cells (setting [1]), the IC50 came to 1.6 nM. For the same compound, the percent degradation of TPM3-TRKA protein at 0.01 µM at TPM3-TRKA fusion protein (setting [2]) is over 80%.

Regarding `O=C1CCC(N2Cc3cc(NCC(=O)N4CCN(c5cccc(-c6cnc7ccc(N8CCC[C@@H]8c8cccc(F)c8)nn67)n5)CC4)ccc3C2=O)C(=O)N1` (stereo partly drawn) [TR-190, 3-(5-((2-(4-(6-(6-((R)-2-(3-fluorophenyl)pyrrolidin-1-yl)imidazo[1,2-b]pyridazin-3-yl)pyridin-2-yl)piperazin-1-yl)-2-oxoethyl)amino)-1-oxoisoindolin-2-yl)piperidine-2,6-dione], in the assay with KM12 cells (setting [1]), the IC50 came out at 8.7 nM. In addition, the percent degradation of TPM3-TRKA protein at 0.01 µM on TPM3-TRKA fusion protein (setting [2]) is over 80%.

As to `O=C1CCC(N2C(=O)c3ccc(CCC(=O)N4CCN(c5cccc(-c6cnc7ccc(N8CCC[C@@H]8c8cccc(F)c8)nn67)n5)CC4)cc3C2=O)C(=O)N1` (stereo partly drawn) [TR-194, 2-(2,6-Dioxopiperidin-3-yl)-5-(3-(4-(6-(6-((R)-2-(3-fluorophenyl)pyrrolidin-1-yl)imidazo[1,2-b]pyridazin-3-yl)pyridin-2-yl)piperazin-1-yl)-3-oxopropyl)isoindoline-1,3-dione], the IC50 in the assay on KM12 cells (setting [1]) is 7.4 nM. The percent degradation of TPM3-TRKA protein at 0.01 µM at TPM3-TRKA fusion protein (setting [2]) was 50 to 80%.

As for `O=C1CCC(N2C(=O)c3ccc(N4CC(C(=O)N5CCN(c6cccc(-c7cnc8ccc(N9CCC[C@@H]9c9cccc(F)c9)nn78)n6)CC5)C4)cc3C2=O)C(=O)N1` (stereo partly drawn) [TR-211, 2-(2,6-dioxopiperidin-3-yl)-5-(3-(4-(6-(6-((R)-2-(3-fluorophenyl)pyrrolidin-1-yl)imidazo[1,2-b]pyridazin-3-yl)pyridin-2-yl)piperazine-1-carbonyl)azetidin-1-yl)isoindoline-1,3-dione], in the assay with KM12 cells (setting [1]), the IC50 amounted to 2 nM. In addition, on TPM3-TRKA fusion protein (setting [2]), the percent degradation of TPM3-TRKA protein at 0.01 µM was over 80%.

With `Cn1c(=O)n(C2CCC(=O)NC2=O)c2ccc(NCCCN3CCN(c4cccc(-c5cnc6ccc(N7CCC[C@@H]7c7cccc(F)c7)nn56)n4)CC3)cc21` (stereo partly drawn) [TR-221, 3-[5-[3-[4-[6-[6-[(2R)-2-(3-fluorophenyl)pyrrolidin-1-yl]imidazo[1,2-b]pyridazin-3-yl]-2-pyridyl]piperazin-1-yl]propylamino]-3-methyl-2-oxo-benzimidazol-1-yl]piperidine-2,6-dione], the IC50 with KM12 cells (setting [1]) is 7.8 nM. In addition, the percent degradation of TPM3-TRKA protein at 0.01 µM at TPM3-TRKA fusion protein (setting [2]) is over 80%.

On to `O=C1CCC(N2C(=O)c3ccc(N4CCC(CN5CCN(c6cccc(-c7cnc8ccc(N9CCC[C@@H]9c9cccc(F)c9)nn78)n6)CC5)C4)cc3C2=O)C(=O)N1` (stereo partly drawn) [TR-225, 2-(2,6-dioxopiperidin-3-yl)-5-(3-((4-(6-(6-((R)-2˜ (3-fluorophenyl)pyrrolidin-1-yl)imidazo[1,2-b]pyridazin-3-yl)pyridin-2-yl)piperazin-1-yl)methyl)pyrrolidin-1-yl)isoindoline-1,3-dione], for which the IC50 in the assay on KM12 cells (setting [1]) came out at 8.4 nM. In addition, on TPM3-TRKA fusion protein (setting [2]), the percent degradation of TPM3-TRKA protein at 0.01 µM is over 80%.

As for `O=C1CCC(n2c(=O)n(CCN3CCN(c4cccc(-c5cnc6ccc(N7CCC[C@@H]7c7cccc(F)c7)nn56)n4)CC3)c3ccccc32)C(=O)N1` (stereo partly drawn) [TR-227, 3-(3-(2-(4-(6-(6-((R)-2-(3-Fluorophenyl)pyrrolidin-1-yl)imidazo[1,2-b]pyridazin-3-yl)pyridin-2-yl)piperazin-1-yl)ethyl)-2-oxo-2,3-dihydro-1H-benzo[d]imidazol-1-yl)piperidine-2,6-dione], in the assay with KM12 cells (setting [1]), the IC50 came out at 23.6 nM. For the same compound, at TPM3-TRKA fusion protein (setting [2]), the percent degradation of TPM3-TRKA protein at 0.01 µM is 50 to 80%.

With `O=C1CCC(n2c(=O)n(CCCN3CCN(c4cccc(-c5cnc6ccc(N7CCC[C@@H]7c7cccc(F)c7)nn56)n4)CC3)c3ccccc32)C(=O)N1` (stereo partly drawn) [TR-228, 3-(3-(3-(4-(6-(6-((R)-2-(3-fluorophenyl)pyrrolidin-1-yl)imidazo[1,2-b]pyridazin-3-yl)pyridin-2-yl)piperazin-1-yl)propyl)-2-oxo-2,3-dihydro-1H-benzo[d]imidazol-1-yl)piperidine-2,6-dione], in the assay on KM12 cells (setting [1]), the IC50 turned out to be 56.3 nM. In addition, on TPM3-TRKA fusion protein (setting [2]), the percent degradation of TPM3-TRKA protein at 0.01 µM lay in the range of 50 to 80%.

Take `O=C1CCC(N2C(=O)c3ccc(NC(=O)CN4CCN(c5cccc(-c6cnc7ccc(N8CCC[C@@H]8c8cccc(F)c8)nn67)n5)CC4)cc3C2=O)C(=O)N1` (stereo partly drawn) [TR-233, N-(2-(2,6-dioxopiperidin-3-yl)-1,3-dioxoisoindolin-5-yl)-2-(4-(6-(6-((R)-2-(3-fluorophenyl)pyrrolidin-1-yl)imidazo[1,2-b]pyridazin-3-yl)pyridin-2-yl)piperazin-1-yl)acetamide]: the IC50 with KM12 cells (setting [1]) is 5 nM. Moreover, the percent degradation of TPM3-TRKA protein at 0.01 µM at TPM3-TRKA fusion protein (setting [2]) was over 80%.

Consider `O=C1CCC(N2C(=O)Cc3c(NCCN4CCN(c5cccc(-c6cnc7ccc(N8CCC[C@@H]8c8cccc(F)c8)nn67)n5)CC4)cccc32)C(=O)N1` (stereo partly drawn) [TR-236, 3-(4-((2-(4-(6-(6-((R)-2-(3-Fluorophenyl)pyrrolidin-1-yl)imidazo[1,2-b]pyridazin-3-yl)pyridin-2-yl)piperazin-1-yl)ethyl)amino)-2-oxoindolin-1-yl)piperidine-2,6-dione], for which the half-maximal inhibitory concentration (IC50) in the assay with KM12 cells (setting [1]) was 99.2 nM. In addition, the percent degradation of TPM3-TRKA protein at 0.01 µM on TPM3-TRKA fusion protein (setting [2]) is under 50%.

`O=C1CCC(N2C(=O)c3ccc(CN4CC(N5CCN(c6cccc(-c7cnc8ccc(N9CCC[C@@H]9c9cccc(F)c9)nn78)n6)CC5)C4)cc3C2=O)C(=O)N1` (stereo partly drawn) [TR-237, 2-(2,6-dioxopiperidin-3-yl)-5-((3-(4-(6-(6-((R)-2-(3-fluorophenyl)pyrrolidin-1-yl)imidazo[1,2-b]pyridazin-3-yl)pyridin-2-yl)piperazin-1-yl)azetidin-1-yl)methyl)isoindoline-1,3-dione]: the IC50 with KM12 cells (setting [1]) amounted to 138 nM. Besides, the percent degradation of TPM3-TRKA protein at 0.01 µM at TPM3-TRKA fusion protein (setting [2]) was over 80%.

Take `Cn1c(=O)n(C2CCC(=O)NC2=O)c2cccc(C#CCN3CCN(c4cccc(-c5cnc6ccc(N7CCC[C@@H]7c7cccc(F)c7)nn56)n4)CC3)c21` (stereo partly drawn) [TR-238, 3-(4-(3-(4-(6-(6-((R)-2-(3-Fluorophenyl)pyrrolidin-1-yl)imidazo[1,2-b]pyridazin-3-yl)pyridin-2-yl)piperazin-1-yl)prop-1-yn-1-yl)-3-methyl-2-oxo-2,3-dihydro-1H-benzo[d]imidazol-1-yl)piperidine-2,6-dione]: the IC50 in the assay with KM12 cells (KM12, 72 h) was found to be 16.2 nM. The percent degradation of TPM3-TRKA protein at 0.01 µM on TPM3-TRKA fusion protein (KM12, 16 h) is over 80%.

Regarding `Cn1c(=O)n(C2CCC(=O)NC2=O)c2cccc(C#CCCN3CCN(c4cccc(-c5cnc6ccc(N7CCC[C@@H]7c7cccc(F)c7)nn56)n4)CC3)c21` (stereo partly drawn) [TR-239, 3-(4-(4-(4-(6-(6-((R)-2-(3-Fluorophenyl)pyrrolidin-1-yl)imidazo[1,2-b]pyridazin-3-yl)pyridin-2-yl)piperazin-1-yl)but-1-yn-1-yl)-3-methyl-2-oxo-2,3-dihydro-1H-benzo[d]imidazol-1-yl)piperidine-2,6-dione], the IC50 with KM12 cells (setting [1]) was found to be 45.9 nM. The percent degradation of TPM3-TRKA protein at 0.01 µM at TPM3-TRKA fusion protein (setting [2]) was over 80%.

For `Cn1c(=O)n(C2CCC(=O)NC2=O)c2cccc(CCCN3CCN(c4cccc(-c5cnc6ccc(N7CCC[C@@H]7c7cccc(F)c7)nn56)n4)CC3)c21` (stereo partly drawn) [TR-240, 3-(4-(3-(4-(6-(6-((R)-2-(3-fluorophenyl)pyrrolidin-1-yl)imidazo[1,2-b]pyridazin-3-yl)pyridin-2-yl)piperazin-1-yl)propyl)-3-methyl-2-oxo-2,3-dihydro-1H-benzo[d]imidazol-1-yl)piperidine-2,6-dione], the IC50 with KM12 cells (setting [1]) stood at 16.1 nM. Further, the percent degradation of TPM3-TRKA protein at 0.01 µM at TPM3-TRKA fusion protein (setting [2]) was over 80%.

Consider `Cn1c(=O)n(C2CCC(=O)NC2=O)c2cccc(CCCCN3CCN(c4cccc(-c5cnc6ccc(N7CCC[C@@H]7c7cccc(F)c7)nn56)n4)CC3)c21` (stereo partly drawn) [TR-241, 3-(4-(4-(4-(6-(6-((R)-2˜ (3-fluorophenyl)pyrrolidin-1-yl)imidazo[1,2-b]pyridazin-3-yl)pyridin-2-yl)piperazin-1-yl)butyl)-3-methyl-2-oxo-2,3-dihydro-1H-benzo[d]imidazol-1-yl)piperidine-2,6-dione], for which, in the assay with KM12 cells (KM12, 72 h), the IC50 stood at 6.1 nM. The percent degradation of TPM3-TRKA protein at 0.01 µM on TPM3-TRKA fusion protein (KM12, 16 h) was over 80%.

Turning to `Cn1c(=O)n(C2CCC(=O)NC2=O)c2cccc(OCCN3CCN(c4cccc(-c5cnc6ccc(N7CCC[C@@H]7c7cccc(F)c7)nn56)n4)CC3)c21` (stereo partly drawn) [TR-244, 3-(4˜ (2-(4-(6-(6-((R)-2-(3-Fluorophenyl)pyrrolidin-1-yl)imidazo[1,2-b]pyridazin-3-yl)pyridin-2-yl)piperazin-1-yl)ethoxy)-3-methyl-2-oxo-2,3-dihydro-1H-benzo[d]imidazol-1-yl)piperidine-2,6-dione], in the assay on KM12 cells (setting [1]), the IC50 is 298 nM. Moreover, at TPM3-TRKA fusion protein (setting [2]), the percent degradation of TPM3-TRKA protein at 0.01 µM was under 50%.
